# Earlier results, collected in patent US10028918B2, “Nanoparticle delivery vehicle for S-nitroso-N-acetyl cysteine and uses thereof” (ALBERT EINSTEIN COLLEGE OF MEDICINE, INC., priority 2012, dated 2018).
# Tested on: rats
# Conditions: normal and acute hypertension induced rats
structure (smiles),measurement,value
"CC(=O)N[C@@H](CSN=O)C(=O)O [NAC-SNO, S-nitroso-N-acetyl cysteine]",Duration of vascular effect,~9 min
